Each block holds one compound with its values, some of them ahead of it.
Key:
[1] = molecular target: T1, PARP15 (Homo sapiens, UniProt Q460N3); assay: MLISA inhibition of PARP15-catalyzed automodification; type: biochemical; conditions: for inhibition effects on PARP15 activity: at concentrations up to 100 μM
T1 sequence (Q460N3 481-678): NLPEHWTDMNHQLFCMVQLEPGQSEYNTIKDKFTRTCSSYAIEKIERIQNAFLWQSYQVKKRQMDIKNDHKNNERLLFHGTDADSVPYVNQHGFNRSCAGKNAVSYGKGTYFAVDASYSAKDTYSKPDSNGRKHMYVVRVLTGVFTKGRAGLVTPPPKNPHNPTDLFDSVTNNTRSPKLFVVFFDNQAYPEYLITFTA

[2] = tested on: PARP15; conditions: read-out: Km of PARP15 for automodification; reported previously; cited from earlier work

SMILES: Oc1cccc2c(O)nccc12 [1,5-Isoquinolinediol, 1,5-isoquinolinediol]
IC50 [1]: 8.5 ± 2.7 µM

SMILES: O=c1[nH]c2ccccc2c2ccccc12 [6(5H)-Phenanthridinone, 6(5H)-phenanthridinone]
IC50 [1]: 1.5 ± 0.5 µM

SMILES: Nc1ncnc2[nH]cnc12 [Adenine, adenine]
inhibition effects on PARP15 activity [1]: no significant inhibition effects

SMILES: CN(C)c1ccc(O)c2c1C[C@H]1C[C@H]3[C@H](N(C)C)C(O)=C(C(N)=O)C(=O)[C@@]3(O)C(O)=C1C2=O [Minocin]
inhibition effects on PARP15 activity [1]: no significant inhibition effects

SMILES: NC(=O)c1ccc[n+]([C@@H]2O[C@H](COP(=O)([O-])OP(=O)(O)OC[C@H]3O[C@@H](n4cnc5c(N)ncnc54)[C@H](O)[C@@H]3O)[C@@H](O)[C@H]2O)c1 [NAD^+, nicotinamide adenine dinucleotide]
Km [2]: 5.8 ± 1.9 µM

Now from value to compound:

pIC50 ([1]; PARP15, 500 nM enzyme, 500 μM NAD+): 5.1
SMILES: Cc1nc2c(c(=O)[nH]1)CSCC2 [DR2313]

inhibition effects on PARP15 activity [1]: no significant inhibition effects
SMILES: Oc1nc(-c2ccc(C(F)(F)F)cc2)nc2c1CSCC2 [XAV939]

Reference: paper PMC5826802 (Analytical biochemistry, 2017)
